# From PubChem BioAssay AID2060513 (Molecular Pharmacology Branch, DTP, NCI, 2025)
# pIC50: −log10 of the molar value.
# Test system: 299254-011-R-J1-PDC complex spheroids viability
# Assay: Anticancer human tumor 299254-011-R-J1-PDC patient-derived melanoma cell line growth inhibition [GQUAD]
# Conditions: for pIC50: curve of first compound; for viability, T/C: stronger effect = lower value
# In short: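 Tumor cells were grown as complex spheroids with HUVEC endothelial cells and mesenchymal stem cells as stroma. G-quadruplex stabilizers were combined with targeted agents over half-log dilutions from near the clinical Cmax, or from 10 microM.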
# 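Further: spheroids exposed to the agents for seven days before readout.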
# 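Wherever viability, T/C is given: percent viability relative to DMSO vehicle control wells = 100%.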
compound,measurement,setting,value
CCCS(=O)(=O)Nc1ccc(F)c(C(=O)c2c[nH]c3ncc(-c4ccc(Cl)cc4)cc23)c1F + Cc1cnc(CNC(=O)c2c(=O)c3ccc(N4CCCN(C)CC4)nc3n3c2sc2ccccc23)cn1,pIC50,second compound 0.0316 µM,5.02
same,pIC50,second compound 0.1 µM,5.05
same,pIC50,second compound 0.316 µM,5.02
same,pIC50,second compound 1 µM,5.07
same,pIC50,second compound 3.16 µM,5.12
same,pIC50,second compound 10 µM,> 7.50
same,"viability, T/C","second compound 0.0316 µM, first compound 0.0316 µM",107%
same,"viability, T/C","second compound 0.0316 µM, first compound 0.1 µM",94%
same,"viability, T/C","second compound 0.0316 µM, first compound 0.316 µM",83.1%
same,"viability, T/C","second compound 0.0316 µM, first compound 1 µM",106%
same,"viability, T/C","second compound 0.0316 µM, first compound 3.16 µM",130%
same,"viability, T/C","second compound 0.0316 µM, first compound 10 µM",47.1%
same,"viability, T/C","second compound 0.1 µM, first compound 0.0316 µM",119%
same,"viability, T/C","second compound 0.1 µM, first compound 0.1 µM",129%
same,"viability, T/C","second compound 0.1 µM, first compound 0.316 µM",92.9%
same,"viability, T/C","second compound 0.1 µM, first compound 1 µM",128%
same,"viability, T/C","second compound 0.1 µM, first compound 3.16 µM",116%
same,"viability, T/C","second compound 0.1 µM, first compound 10 µM",42.6%
same,"viability, T/C","second compound 0.316 µM, first compound 0.0316 µM",92.8%
same,"viability, T/C","second compound 0.316 µM, first compound 0.1 µM",109%
same,"viability, T/C","second compound 0.316 µM, first compound 0.316 µM",92.9%
same,"viability, T/C","second compound 0.316 µM, first compound 1 µM",99%
same,"viability, T/C","second compound 0.316 µM, first compound 3.16 µM",113%
same,"viability, T/C","second compound 0.316 µM, first compound 10 µM",47.5%
same,"viability, T/C","second compound 1 µM, first compound 0.0316 µM",88.5%
same,"viability, T/C","second compound 1 µM, first compound 0.1 µM",85%
same,"viability, T/C","second compound 1 µM, first compound 0.316 µM",105%
same,"viability, T/C","second compound 1 µM, first compound 1 µM",96.8%
same,"viability, T/C","second compound 1 µM, first compound 3.16 µM",106%
same,"viability, T/C","second compound 1 µM, first compound 10 µM",42.4%
same,"viability, T/C","second compound 3.16 µM, first compound 0.0316 µM",85.5%
same,"viability, T/C","second compound 3.16 µM, first compound 0.1 µM",96.6%
same,"viability, T/C","second compound 3.16 µM, first compound 0.316 µM",106%
same,"viability, T/C","second compound 3.16 µM, first compound 1 µM",91.5%
same,"viability, T/C","second compound 3.16 µM, first compound 3.16 µM",118%
same,"viability, T/C","second compound 3.16 µM, first compound 10 µM",35.1%
same,"viability, T/C","second compound 10 µM, first compound 0.0316 µM",4.58%
same,"viability, T/C","second compound 10 µM, first compound 0.1 µM",0.48%
same,"viability, T/C","second compound 10 µM, first compound 0.316 µM",0.57%
same,"viability, T/C","second compound 10 µM, first compound 1 µM",0.54%
same,"viability, T/C","second compound 10 µM, first compound 3.16 µM",0.42%
same,"viability, T/C","second compound 10 µM, first compound 10 µM",0.34%
